The target in series [1] is Ba/F3-FL-EGFR (del19-E746-A750/C797S) (Homo sapiens, UniProt P00533, DEL746-750/C797S, cells depend on it). As to the kind of experiment: Cell proliferation inhibition, CellTiter-Glo. Type of series: cell-based. Particulars: 72 hours, read-out: Cell half-maximal inhibition concentration IC50 Ba/F3-FL-EGFR (del19-E746-A750/C797S). As for the experimental part: AdenosineTri-Phosphate (ATP) is an energy carrier shared by various life activities in nature, and is the smallest unit of energy storage and transfer. The CellTiter-Glo™ living cell assay kit uses luciferase as a detector, and luciferase requires the participation of ATP in the process of luminescence. CellTiter-Glo™ reagent is added to a cell culture medium, and the luminescence value is measured. The light signal is directly proportional to the amount of ATP in the system, and ATP is positively correlated with the number of living cells. Therefore, cell proliferation can be detected by detecting ATP content with the CellTiter-Glo kit. In this assay, the cell lines were Ba/F3-FL-EGFR (L858R/T790M/C797S), Ba/F3-FL-EGFR (WT), Ba/F3-FL-EGFR (L858R), Ba/F3-FL-EGFR (del19-S752-I759), Ba/F3-FL-EGFR (del19-E746-A750/T790M/C797S), Ba/F3-FL-EGFR (L858R/T790M), Ba/F3-FL-EGFR (del19-E746-A750/T790M), Ba/F3-TEL-EGFR (L858R/C797S), Ba/F3-FL-EGFR (del19-E746-A750/C797S) stably transfected cell lines.
Chain of Ba/F3-FL-EGFR (del19-E746-A750/C797S) (P00533 with tags, fused parts or gaps DEL746-750/C797S): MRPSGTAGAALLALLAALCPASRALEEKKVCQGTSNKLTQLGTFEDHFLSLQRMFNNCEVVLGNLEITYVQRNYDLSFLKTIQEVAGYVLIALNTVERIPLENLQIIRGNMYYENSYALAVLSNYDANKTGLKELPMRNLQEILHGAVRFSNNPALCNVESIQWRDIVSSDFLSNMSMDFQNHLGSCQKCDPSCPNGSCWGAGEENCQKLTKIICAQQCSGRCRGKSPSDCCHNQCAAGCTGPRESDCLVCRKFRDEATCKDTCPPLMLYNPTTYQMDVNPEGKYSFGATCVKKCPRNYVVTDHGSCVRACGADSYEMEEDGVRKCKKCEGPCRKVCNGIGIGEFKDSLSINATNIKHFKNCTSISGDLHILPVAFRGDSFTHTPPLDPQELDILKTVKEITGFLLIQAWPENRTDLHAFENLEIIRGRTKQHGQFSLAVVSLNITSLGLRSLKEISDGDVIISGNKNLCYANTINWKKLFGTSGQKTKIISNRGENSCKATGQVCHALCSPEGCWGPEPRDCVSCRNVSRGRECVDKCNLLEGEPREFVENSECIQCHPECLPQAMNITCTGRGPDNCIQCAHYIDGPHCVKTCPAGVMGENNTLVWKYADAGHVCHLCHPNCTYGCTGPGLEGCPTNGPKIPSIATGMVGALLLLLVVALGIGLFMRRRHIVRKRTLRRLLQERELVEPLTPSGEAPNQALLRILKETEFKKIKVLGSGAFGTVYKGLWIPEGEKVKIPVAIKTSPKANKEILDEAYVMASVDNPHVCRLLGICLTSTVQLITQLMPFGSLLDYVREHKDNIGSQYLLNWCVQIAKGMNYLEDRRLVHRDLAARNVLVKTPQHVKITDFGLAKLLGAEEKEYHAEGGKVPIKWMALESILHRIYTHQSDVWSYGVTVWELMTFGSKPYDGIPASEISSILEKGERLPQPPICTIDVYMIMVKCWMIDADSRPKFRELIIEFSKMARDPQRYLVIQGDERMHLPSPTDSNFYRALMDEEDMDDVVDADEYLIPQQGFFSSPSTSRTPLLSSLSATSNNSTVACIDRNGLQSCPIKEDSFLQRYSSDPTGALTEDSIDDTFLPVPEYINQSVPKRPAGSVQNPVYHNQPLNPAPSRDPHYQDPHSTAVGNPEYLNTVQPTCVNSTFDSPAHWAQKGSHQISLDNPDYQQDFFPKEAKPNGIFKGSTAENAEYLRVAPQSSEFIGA
The cell lines were cultured in an incubator at 37° C. and 5% CO2. The cells were periodically passaged, and cells in logarithmic growth phase were taken for plating.
a) DMSO was used to prepare a 10 mM solution of the compound to be tested, and then the compound to be tested was diluted to 0.3 or 1 mM with DMSO.
b) Preparation of 1000× compound storage plate (tube): DMSO was used to dilute by 3-fold gradient from the highest concentration to the lowest concentration, with a total of 9 concentrations.
c) Preparation of 20× compound working solution: 49 μL of cell culture medium was added to a flat-bottomed 96-well transparent drug plate, and 1 μL of compound was pipetted from the 1000× compound storage plate to the cell culture medium of the 96-well transparent drug plate. 1 μL of DMSO was added to the vehicle control. After adding compound or DMSO, the well content was mixed to uniform by aspiration and expelling with pipette.
a) Cells were stained with trypan blue and viable cells were counted. The cell viability rate was required to be above 90%.
b) 95 μL of cell suspension (2000 cells/well) was added to each well of the compound detection cell plate, and culture medium without cells (containing 0.1% DMSO) was added to the Min control well.
c) Dosing in the compound detection cell plate: 5 μL of 20× compound working solution was added to the cell culture plate. 5 μL of DMSO-cell culture mixture was added to the Max control. The final concentration of DMSO was 0.1%.
d) The culture plate was incubated in an incubator at 37° C., 5% CO2 for 72 hours.
Cell proliferation inhibition rate (Inhibition Rate) data were processed using the following formula:
Inhibition Rate (Inh %)=100−(RLUDrug−RLUMin)/(RLUMax−RLUMin)*100%.
The inhibition rates corresponding to different concentrations of compounds were calculated, and then GraphPad Prism software was used to draw the inhibition rate curve and the IC50 value was calculated.

Series [2] can be described thus: Body weight of animals in the in vivo efficacy assay. Particulars: for Body weight of the mice compared to the control group (tolerance): 10 days of continuous administration, 10 mg/kg and 25 mg/kg. The procedure: Dosage according to mouse body weight: 10 μL/g. If the body weight decreases by more than 20%, the dosing regimen was adjusted accordingly.
The formulation and any modifications of this assay protocol were evaluated and approved by the Laboratory Animal Welfare Ethics Committee of the testing institution. The health status and death of animals were checked every day. Routine inspections included tumor growth, activity, diet, body weight, eyes, hair and other abnormal behaviors of animals. Tumor volume and body weight were measured three times a week (Monday, Wednesday and Friday). The tumor volume was measured with a vernier caliper, and the formula was TV=0.5 a×b^2, where a is the long diameter of a tumor and b is the short diameter of a tumor.
The body weight of assay animals was used as a reference index to indirectly determine drug toxicity.

Series [3] deals with T1, EGFR (del19-E746-A750/T790M/C797S) (Homo sapiens, UniProt P00533, C797S/DEL746-750/T790M).
T1 construct: Reaction Biology Corp. (assay performed there)
T1 sequence (P00533 with tags, fused parts or gaps DEL746-750/T790M/C797S): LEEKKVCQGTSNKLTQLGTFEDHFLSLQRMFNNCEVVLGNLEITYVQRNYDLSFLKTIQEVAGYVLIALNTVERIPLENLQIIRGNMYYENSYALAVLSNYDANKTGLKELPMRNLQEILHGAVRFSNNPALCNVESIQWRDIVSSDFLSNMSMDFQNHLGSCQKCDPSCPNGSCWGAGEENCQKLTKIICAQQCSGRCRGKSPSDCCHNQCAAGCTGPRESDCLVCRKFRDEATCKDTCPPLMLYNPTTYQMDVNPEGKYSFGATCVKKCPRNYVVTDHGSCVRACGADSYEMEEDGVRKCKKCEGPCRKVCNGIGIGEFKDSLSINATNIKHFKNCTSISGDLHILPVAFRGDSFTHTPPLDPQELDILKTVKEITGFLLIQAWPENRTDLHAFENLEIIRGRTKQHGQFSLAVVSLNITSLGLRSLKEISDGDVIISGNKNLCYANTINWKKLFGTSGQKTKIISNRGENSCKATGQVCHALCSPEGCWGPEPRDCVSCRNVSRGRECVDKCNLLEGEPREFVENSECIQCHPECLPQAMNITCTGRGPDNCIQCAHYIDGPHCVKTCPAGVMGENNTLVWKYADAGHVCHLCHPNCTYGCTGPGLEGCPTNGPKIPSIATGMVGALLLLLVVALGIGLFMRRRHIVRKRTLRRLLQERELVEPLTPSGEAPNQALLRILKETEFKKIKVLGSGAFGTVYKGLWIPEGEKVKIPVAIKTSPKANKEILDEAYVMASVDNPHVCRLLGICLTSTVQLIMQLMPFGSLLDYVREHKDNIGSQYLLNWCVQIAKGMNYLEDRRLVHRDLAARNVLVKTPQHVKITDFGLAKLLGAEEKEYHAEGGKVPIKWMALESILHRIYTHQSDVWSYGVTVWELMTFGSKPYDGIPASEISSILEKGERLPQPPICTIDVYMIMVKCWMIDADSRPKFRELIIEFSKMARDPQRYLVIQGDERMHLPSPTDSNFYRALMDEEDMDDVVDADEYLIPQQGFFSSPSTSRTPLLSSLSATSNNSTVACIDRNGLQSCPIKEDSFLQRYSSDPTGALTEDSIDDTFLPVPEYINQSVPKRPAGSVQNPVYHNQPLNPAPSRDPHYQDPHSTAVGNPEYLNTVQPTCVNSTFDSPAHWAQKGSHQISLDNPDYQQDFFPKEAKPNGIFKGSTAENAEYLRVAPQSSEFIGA
As to the kind of experiment: Kinase inhibitory activity, 33P-ATP filtration-binding (Reaction Biology Corp.). The class given is biochemical. Conditions: ATP 100 μM; read-out: Kinase half-maximal inhibition concentration IC50 EGFR(del19-E746-A750/T790M/C797S). As for the experimental part:
(§1) Compound assay for kinase inhibitory activity against EGFR (L858R/T790M/C797S), EGFR (del19-E746-A750/T790M/C797S), and EGFR (WT) was done at Reaction Biology Corp. In reaction buffer (20 mM Hepes (pH 7.5), 10 mM magnesium chloride (MgCl2), 1 mM ethylenebis(oxyethylenenitrilo)tetraacetic acid (EGTA), 0.02% polyethylene glycol monododecyl ether (Brij35), 0.02 mg/ml BSA, 0.1 mM sodium vanadate (Na3VO4), 2 mM dithiothreitol (DTT), 1% DMSO), a certain concentration of substances, coenzyme factors, kinases and test compounds (10 doses, 3-fold serial dilutions, 2% DMSO final concentration) were added in sequence, and mixed well. The mixture was incubated at room temperature for 20 minutes. A certain concentration of ^33P-ATP was added to the reaction mixture to initiate reaction, followed by incubation at room temperature for 120 minutes. Finally, the radioactivity of the reactants was detected by filtration-binding method. The final kinase activity was expressed as the ratio of the remaining kinase activity of the test sample to the kinase activity of the DMSO control group. The dose-response relationship curve was fitted and IC50 was calculated using GraphPad software.

A further series concerns the target T2, EGFR (L858R/T790M/C797S) (Homo sapiens, UniProt P00533, C797S/L858R/T790M).
T2 construct: Reaction Biology Corp. (assay performed there)
Described as above. The class given is biochemical. Conditions: ATP 100 μM; read-out: Kinase half-maximal inhibition concentration IC50 EGFR(L858R/T790M/C797S). The procedure:
as §1

The next series has as its target T3, EGFR (WT) (Homo sapiens, UniProt P00533).
T3 construct: Reaction Biology Corp. (assay performed there)
Described as above. Particulars: ATP 100 μM; read-out: Kinase half-maximal inhibition concentration IC50 EGFR(WT). The class given is biochemical. As for the experimental part:
as §1

Setting [4] is: 10 mg/kg/bid, day 0 after administration.
Setting [5] is: 10 mg/kg/bid, day 3 after administration.
Setting [6] is: 10 mg/kg/bid, day 5 after administration.
Setting [7] is: 10 mg/kg/bid, day 7 after administration.
The mark [8] stands for this setting: 10 mg/kg/bid, day 10 after administration.
Where [9] appears, read: 25 mg/kg/bid, day 0 after administration.
Where [10] appears, read: 25 mg/kg/bid, day 3 after administration.
The mark [11] stands for this setting: 25 mg/kg/bid, day 5 after administration.
Where [12] appears, read: 25 mg/kg/bid, day 7 after administration.
[13] abbreviates: 25 mg/kg/bid, day 10 after administration.

T3 sequence (P00533 25-1210): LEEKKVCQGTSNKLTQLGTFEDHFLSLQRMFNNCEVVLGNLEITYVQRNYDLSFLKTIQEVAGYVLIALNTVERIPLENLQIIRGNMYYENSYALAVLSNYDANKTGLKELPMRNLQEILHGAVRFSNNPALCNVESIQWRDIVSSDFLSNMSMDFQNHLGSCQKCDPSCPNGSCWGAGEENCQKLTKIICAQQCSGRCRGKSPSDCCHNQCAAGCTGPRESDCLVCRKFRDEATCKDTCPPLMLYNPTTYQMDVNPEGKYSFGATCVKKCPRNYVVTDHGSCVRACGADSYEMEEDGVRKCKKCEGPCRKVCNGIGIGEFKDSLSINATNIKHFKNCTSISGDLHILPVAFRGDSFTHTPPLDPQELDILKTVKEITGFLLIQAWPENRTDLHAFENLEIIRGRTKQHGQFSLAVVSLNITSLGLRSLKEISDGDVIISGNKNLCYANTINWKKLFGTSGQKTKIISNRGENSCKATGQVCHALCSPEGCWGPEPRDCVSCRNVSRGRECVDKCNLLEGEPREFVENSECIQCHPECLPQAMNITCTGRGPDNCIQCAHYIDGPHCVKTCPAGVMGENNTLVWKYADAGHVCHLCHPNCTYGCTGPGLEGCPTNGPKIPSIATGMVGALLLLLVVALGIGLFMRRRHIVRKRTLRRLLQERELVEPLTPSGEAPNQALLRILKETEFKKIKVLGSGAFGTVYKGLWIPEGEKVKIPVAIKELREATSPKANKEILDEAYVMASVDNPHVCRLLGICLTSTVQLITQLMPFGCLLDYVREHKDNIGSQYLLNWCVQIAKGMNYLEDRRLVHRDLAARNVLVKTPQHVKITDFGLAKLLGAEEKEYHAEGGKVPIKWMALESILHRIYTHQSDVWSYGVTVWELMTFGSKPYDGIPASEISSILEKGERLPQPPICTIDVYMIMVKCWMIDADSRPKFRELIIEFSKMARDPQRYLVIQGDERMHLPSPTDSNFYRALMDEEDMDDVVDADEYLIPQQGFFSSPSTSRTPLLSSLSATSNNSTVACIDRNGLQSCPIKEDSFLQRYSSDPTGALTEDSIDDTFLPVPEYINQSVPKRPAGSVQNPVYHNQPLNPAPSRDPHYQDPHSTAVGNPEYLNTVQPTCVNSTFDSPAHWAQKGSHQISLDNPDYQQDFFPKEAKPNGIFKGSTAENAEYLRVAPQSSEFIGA
T2 sequence (P00533 25-1210 T790M/C797S/L858R): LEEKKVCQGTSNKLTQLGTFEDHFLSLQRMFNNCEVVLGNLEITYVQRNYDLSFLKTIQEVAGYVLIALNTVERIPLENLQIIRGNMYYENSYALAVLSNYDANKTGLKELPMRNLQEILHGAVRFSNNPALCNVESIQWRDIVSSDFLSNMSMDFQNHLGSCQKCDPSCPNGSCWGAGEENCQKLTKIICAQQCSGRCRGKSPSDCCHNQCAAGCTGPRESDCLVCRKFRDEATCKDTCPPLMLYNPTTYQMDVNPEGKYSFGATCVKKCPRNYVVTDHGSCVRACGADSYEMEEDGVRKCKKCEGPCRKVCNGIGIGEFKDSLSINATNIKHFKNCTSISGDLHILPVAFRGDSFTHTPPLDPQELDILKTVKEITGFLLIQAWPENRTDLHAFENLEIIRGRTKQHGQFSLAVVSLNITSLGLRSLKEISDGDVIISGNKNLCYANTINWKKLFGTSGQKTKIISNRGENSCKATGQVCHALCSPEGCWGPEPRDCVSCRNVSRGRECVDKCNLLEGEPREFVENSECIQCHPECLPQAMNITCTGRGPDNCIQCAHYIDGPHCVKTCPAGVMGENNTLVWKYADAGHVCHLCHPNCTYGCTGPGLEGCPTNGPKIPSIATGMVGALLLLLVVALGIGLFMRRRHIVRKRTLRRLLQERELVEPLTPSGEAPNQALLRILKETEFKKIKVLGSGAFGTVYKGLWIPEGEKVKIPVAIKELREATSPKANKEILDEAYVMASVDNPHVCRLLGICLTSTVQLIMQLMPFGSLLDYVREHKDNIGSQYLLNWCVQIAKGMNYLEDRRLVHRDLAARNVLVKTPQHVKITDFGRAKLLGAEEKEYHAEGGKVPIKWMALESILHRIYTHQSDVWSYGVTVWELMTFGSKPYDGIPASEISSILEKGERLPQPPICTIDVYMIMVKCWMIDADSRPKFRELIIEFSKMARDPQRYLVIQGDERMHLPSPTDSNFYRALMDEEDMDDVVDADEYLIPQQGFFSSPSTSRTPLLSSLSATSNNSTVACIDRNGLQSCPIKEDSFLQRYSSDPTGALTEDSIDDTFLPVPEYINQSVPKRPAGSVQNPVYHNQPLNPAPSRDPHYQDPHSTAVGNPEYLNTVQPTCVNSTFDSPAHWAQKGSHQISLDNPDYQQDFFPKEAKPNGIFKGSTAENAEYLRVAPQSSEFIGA

As for `Cc1cc2cc(n1)-c1cnn(C)c1OCCC[C@@H](C)CN1/C(=N/C2=O)Nc2ccc(N=S(C)(C)=O)c(Cl)c21` [WX-019], in series [1], the GI50 worked out at 6.5 nM. Further, the Average body weight in series [2] (setting [4]) is given as 20.6 g; in series [2] (setting [5]), 20.7 g; in series [2] (setting [6]) it was 20.8 g; in series [2] (setting [7]) it was 20.7 g; in series [2] (setting [8]), 20.9 g; in series [2] (setting [9]), 22.5 g. Besides, the Average body weight in series [2] (setting [10]) amounted to 23.4 g; in series [2] (setting [11]), 23.0 g; in series [2] (setting [12]), 22.8 g; in series [2] (setting [13]), 23.3 g. Also, in series [2], the “Body weight of the mice compared to the control group (tolerance)” value was “no significant difference”. Besides, the figures for the IC50 (in series [3]; on EGFR (L858R/T790M/C797S); on EGFR (WT)) were 0.139 nM, 3.55 nM and 212 nM, respectively.
As for `Cc1cc2cc(n1)-c1cnn(C)c1OC[C@H]1CC[C@H](C1)CN1/C(=N/C2=O)Nc2ccc(N=S(C)(C)=O)cc21` (single isomer, unassigned) [WX-027A], the GI50 in series [1] turned out to be 4.7 nM. Also, the Average body weight was 21.7 g in series [2] (setting [4]); 21.9 g in series [2] (setting [5]); 22.1 g in series [2] (setting [6]); 22.1 g in series [2] (setting [7]); 22.2 g in series [2] (setting [8]); 21.0 g in series [2] (setting [9]). Further, the Average body weight in series [2] (setting [10]) amounted to 21.5 g; in series [2] (setting [11]) it was 21.6 g; in series [2] (setting [12]) it was 21.4 g; in series [2] (setting [13]), 21.8 g. Besides, the “Body weight of the mice compared to the control group (tolerance)” value in series [2] was “no significant difference”. Further, the values for the IC50 (in series [3]; on EGFR (L858R/T790M/C797S); on EGFR (WT)) were 0.093 nM, 1.82 nM and 55.8 nM, respectively.

These data come from US20250084097A1, “MACROCYCLIC AMIDE COMPOUNDS AND APPLICATION THEREOF” (Medshine Discovery Inc., priority 2021, published 2025).
